What all share (type): cell-based
One experiment deals with T1, hNaV1.2 (Homo sapiens, UniProt Q99250).
T1 construct: host or cells: HEK293
The experiment in a line: Automated whole-cell patch-clamp (QPatch 16X), hNaV1.2. The conditions noted are these: for pIC50: HEK293 cells expressing hNaV1.2 + β1 subunit, QPatch 16X, holding −80 mV, step to 0 mV, peptide incubated 2 min, 0.1% BSA, mean, SEM and n (2-7). As for the experimental part: (§1) Human embryonic kidney 293 (HEK293) cells stably expressing recombinant hNaV1.2, hNaV1.3 and hNaV1.7 and the β1 auxiliary subunit (Scottish Biomedical Drug Discovery, Glasgow, UK) were cultured in Minimal Essential medium (MEM) (Sigma-Aldrich, MO, United States) supplemented with 10% v/v FBS-New Zealand origin (Assay Matrix), 2 mM L-glutamine and selection antibiotics as per manufacturer’s recommendation. The HEK293 cells heterologously expressing mNaV1.7 and F813G-mNaV1.7 were generously provided by Prof Irina Vetter and were cultured in Minimal Essential medium (MEM) (Sigma-Aldrich, MO, United States) supplemented with 10% v/v FBS-New Zealand origin (Assay Matrix), 2 mM L-glutamine and hygromycin 100 μg/mL.
(§2) NaV channel currents from HEK293 cells stably expressing NaV subtypes and the β1 auxiliary subunit were recorded using an automated whole-cell patch clamp system QPatch 16X (Sophion Bioscience A/S, Ballerup, Denmark). As per the manufacturer’s guidelines, the cells were cultured for 48 h to achieve ∼80% confluency, detached using Detachin (Genlantis) and resuspended to 5 × 10^6 cells/mL in serum free media [CHO-cell SFM (Life Technologies), 25 mM HEPES and 100 U/mL penicillin/streptomycin]. The extracellular solution comprised (in mM) 1 CaCl2, 1 MgCl2, 5 HEPES, 3 KCl, 140 NaCl and 20 TEA-Cl, with the pH adjusted to 7.3 with NaOH. The intracellular solution comprised (in mM) 140 CsF, 1 EGTA, 5 CsOH, 10 HEPES and 10 NaCl, with the pH adjusted to 7.3 with CsOH. The osmolarity of both solutions were adjusted to 320 mOsm with sucrose. Compounds were prepared in extracellular solution containing 0.1% bovine serum albumin (Sigma-Aldrich). To obtain the dose-response curves, cells were maintained at a holding potential −80 mV and Na^+ currents were elicited by […] voltage steps to 0 mV from a −120 mV conditioning pulse applied for […]. Increasing concentrations of the peptide were incubated with the cells at the holding potential for 2 min before the voltage protocol was applied.
(§3) The experimental data were analysed using QPatch Assay software v5.6.4 and GraphPad Prism 7.0 using a four-parameter Hill equation [Y = Bottom + (Top—Bottom)/(1 + 10^(Log IC50—X)* Hillslope)] to fit concentration response curves by non-linear regression analysis and Student’s t-test. Data are presented as means ± standard error of mean (SEM) with number of independent experiments stated and p < 0.05 is considered statistically significant. Statistically insignificant shift in the activity is denoted by “little” while small but statistically significant shift in the activity is denoted by “slight” throughout the manuscript.

In the next experiment the target is T2, hNaV1.3 (Homo sapiens, UniProt Q9NY46).
T2 construct: host or cells: HEK293
Briefly: Automated whole-cell patch-clamp (QPatch 16X), hNaV1.3. The conditions noted are these: for pIC50: HEK293 cells expressing hNaV1.3 + β1 subunit, QPatch 16X, holding −80 mV, step to 0 mV, peptide incubated 2 min, 0.1% BSA, mean, SEM and n (3-12). As for the experimental part:
as §1, §2, §3
In general terms: In patch-clamp work, channel activity is measured electrically.

For the next experiment, the target named is T3, hNaV1.7 (Homo sapiens, UniProt Q15858).
T3 construct: host or cells: HEK293
The experiment in a line: Automated whole-cell patch-clamp (QPatch 16X), hNaV1.7. The following applies: for pIC50: HEK293 cells expressing hNaV1.7 + β1 subunit, QPatch 16X, holding −80 mV, step to 0 mV, peptide incubated 2 min, 0.1% BSA, mean, SEM and n (3-9). The procedure: as §1, §2, §3

pIC50: −log10 of the molar value. Bridge positions count the residues as written; N and C are the ends. Peptide text beside a SMILES is read from it.

T3 sequence (Q15858 whole entry): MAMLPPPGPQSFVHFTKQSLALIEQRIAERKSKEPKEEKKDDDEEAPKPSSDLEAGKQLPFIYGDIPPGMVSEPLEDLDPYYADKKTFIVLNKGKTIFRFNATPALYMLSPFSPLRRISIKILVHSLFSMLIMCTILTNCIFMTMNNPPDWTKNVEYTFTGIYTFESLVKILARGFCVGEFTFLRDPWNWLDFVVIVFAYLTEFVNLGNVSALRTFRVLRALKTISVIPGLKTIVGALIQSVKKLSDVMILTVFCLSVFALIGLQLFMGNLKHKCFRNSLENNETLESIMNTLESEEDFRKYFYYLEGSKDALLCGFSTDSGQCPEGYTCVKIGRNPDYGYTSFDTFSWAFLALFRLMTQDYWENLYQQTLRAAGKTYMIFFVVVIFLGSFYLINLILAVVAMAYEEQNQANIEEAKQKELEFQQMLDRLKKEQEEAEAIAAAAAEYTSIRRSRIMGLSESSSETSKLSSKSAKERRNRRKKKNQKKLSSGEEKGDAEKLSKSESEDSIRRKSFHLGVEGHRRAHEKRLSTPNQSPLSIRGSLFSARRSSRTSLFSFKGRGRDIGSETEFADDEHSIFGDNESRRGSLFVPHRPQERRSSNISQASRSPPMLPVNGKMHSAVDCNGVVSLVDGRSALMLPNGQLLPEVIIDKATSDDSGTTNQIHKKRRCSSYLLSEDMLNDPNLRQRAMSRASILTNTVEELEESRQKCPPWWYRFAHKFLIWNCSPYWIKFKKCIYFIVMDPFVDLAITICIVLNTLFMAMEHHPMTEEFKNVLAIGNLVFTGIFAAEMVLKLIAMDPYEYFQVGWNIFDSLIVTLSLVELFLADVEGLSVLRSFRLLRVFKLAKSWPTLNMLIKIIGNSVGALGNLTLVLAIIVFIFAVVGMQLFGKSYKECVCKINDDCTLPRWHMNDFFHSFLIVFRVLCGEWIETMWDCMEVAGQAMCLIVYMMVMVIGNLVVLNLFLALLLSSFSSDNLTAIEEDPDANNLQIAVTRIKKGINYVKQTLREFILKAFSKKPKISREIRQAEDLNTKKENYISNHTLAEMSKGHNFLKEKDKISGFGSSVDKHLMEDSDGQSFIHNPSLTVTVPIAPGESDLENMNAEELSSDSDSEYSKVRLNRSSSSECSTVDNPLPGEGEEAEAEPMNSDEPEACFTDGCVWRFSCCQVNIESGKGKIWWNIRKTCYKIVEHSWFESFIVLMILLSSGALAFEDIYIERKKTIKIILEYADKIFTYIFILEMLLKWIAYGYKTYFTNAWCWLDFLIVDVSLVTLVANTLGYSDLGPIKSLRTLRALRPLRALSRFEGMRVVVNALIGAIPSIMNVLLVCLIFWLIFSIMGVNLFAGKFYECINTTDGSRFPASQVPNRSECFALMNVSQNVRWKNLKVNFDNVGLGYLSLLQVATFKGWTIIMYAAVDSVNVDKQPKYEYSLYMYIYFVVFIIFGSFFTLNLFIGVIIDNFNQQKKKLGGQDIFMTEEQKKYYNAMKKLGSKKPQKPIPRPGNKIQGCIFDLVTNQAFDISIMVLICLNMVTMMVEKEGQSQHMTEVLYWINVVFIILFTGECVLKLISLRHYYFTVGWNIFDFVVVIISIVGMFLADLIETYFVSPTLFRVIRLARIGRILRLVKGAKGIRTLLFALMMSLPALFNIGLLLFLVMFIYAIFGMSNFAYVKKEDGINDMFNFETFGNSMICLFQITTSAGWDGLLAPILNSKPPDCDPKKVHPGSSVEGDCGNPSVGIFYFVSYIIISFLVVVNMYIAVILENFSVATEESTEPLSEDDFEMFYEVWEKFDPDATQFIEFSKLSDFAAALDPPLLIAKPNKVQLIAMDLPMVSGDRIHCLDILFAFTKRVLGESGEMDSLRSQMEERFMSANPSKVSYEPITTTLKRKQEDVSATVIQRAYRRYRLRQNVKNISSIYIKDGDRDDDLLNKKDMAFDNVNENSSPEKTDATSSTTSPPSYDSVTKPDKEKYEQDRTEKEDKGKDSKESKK
T3 sequence (Q07699 19-218, further chain): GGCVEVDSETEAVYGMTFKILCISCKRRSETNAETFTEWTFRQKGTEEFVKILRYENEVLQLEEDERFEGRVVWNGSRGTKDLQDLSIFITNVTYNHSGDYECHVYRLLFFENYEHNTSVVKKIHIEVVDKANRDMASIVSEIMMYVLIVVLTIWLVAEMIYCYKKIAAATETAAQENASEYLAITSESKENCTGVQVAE
T1 sequence (Q07699 19-218): as the sequence (Q07699 19-218, further chain) above
T1 sequence (Q99250 whole entry): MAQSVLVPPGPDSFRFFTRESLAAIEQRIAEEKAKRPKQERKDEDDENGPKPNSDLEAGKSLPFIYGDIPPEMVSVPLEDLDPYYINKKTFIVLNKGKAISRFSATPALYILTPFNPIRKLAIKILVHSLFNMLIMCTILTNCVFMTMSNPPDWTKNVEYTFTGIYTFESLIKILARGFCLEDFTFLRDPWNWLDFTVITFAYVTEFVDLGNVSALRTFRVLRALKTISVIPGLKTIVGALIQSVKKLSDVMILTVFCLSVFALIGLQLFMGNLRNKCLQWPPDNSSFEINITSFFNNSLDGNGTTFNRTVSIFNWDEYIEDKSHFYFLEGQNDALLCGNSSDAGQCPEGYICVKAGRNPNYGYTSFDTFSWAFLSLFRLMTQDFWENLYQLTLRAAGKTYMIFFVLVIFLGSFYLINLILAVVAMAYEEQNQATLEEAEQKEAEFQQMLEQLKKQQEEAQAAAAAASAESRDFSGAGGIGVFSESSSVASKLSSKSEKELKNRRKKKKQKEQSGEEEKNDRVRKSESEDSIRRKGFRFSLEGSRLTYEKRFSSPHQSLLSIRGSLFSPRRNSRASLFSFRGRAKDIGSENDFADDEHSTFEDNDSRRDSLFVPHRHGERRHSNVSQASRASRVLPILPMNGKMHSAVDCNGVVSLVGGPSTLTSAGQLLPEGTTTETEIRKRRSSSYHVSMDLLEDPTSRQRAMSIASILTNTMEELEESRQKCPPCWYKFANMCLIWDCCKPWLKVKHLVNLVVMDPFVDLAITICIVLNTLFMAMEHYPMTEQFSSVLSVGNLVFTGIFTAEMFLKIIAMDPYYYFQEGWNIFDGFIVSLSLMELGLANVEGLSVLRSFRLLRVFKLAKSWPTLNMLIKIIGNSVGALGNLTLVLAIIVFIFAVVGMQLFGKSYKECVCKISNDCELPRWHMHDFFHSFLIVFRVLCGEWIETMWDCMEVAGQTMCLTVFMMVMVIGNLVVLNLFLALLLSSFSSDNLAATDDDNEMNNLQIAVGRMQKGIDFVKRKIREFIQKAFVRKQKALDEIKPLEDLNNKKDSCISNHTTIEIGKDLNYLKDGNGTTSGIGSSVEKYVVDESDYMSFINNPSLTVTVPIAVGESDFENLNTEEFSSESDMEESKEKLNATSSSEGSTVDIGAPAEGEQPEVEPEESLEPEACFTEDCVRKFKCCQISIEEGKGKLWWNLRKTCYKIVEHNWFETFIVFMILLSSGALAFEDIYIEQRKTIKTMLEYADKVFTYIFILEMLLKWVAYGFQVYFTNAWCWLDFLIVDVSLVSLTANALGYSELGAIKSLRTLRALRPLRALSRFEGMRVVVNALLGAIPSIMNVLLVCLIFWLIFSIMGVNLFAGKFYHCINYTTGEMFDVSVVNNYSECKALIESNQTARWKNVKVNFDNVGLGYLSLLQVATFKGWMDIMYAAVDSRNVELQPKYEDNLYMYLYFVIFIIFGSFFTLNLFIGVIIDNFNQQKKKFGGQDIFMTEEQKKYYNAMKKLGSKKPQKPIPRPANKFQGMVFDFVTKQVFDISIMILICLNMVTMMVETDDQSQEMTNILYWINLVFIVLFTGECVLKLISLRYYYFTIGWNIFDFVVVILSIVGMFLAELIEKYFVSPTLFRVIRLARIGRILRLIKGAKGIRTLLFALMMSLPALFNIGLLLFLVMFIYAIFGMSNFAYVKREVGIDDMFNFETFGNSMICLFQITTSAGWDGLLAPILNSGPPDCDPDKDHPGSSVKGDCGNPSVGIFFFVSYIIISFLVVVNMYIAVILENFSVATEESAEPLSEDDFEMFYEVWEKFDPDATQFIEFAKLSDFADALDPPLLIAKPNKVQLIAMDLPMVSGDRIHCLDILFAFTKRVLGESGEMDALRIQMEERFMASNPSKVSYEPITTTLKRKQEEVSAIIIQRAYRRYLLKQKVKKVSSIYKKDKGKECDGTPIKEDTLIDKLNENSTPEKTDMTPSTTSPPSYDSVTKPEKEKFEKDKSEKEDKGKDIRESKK

The pIC50 is the negative decadic logarithm of the IC50, by convention in mol/L. As for `CC(C)C[C@H](NC(=O)[C@H](CC(=O)O)NC(=O)[C@H](Cc1ccc(O)cc1)NC(=O)[C@H](CCCNC(=N)N)NC(=O)[C@@H]1CSSC[C@@H]2NC(=O)[C@H](CCCCN)NC(=O)[C@H](CC(N)=O)NC(=O)[C@H](CC(N)=O)NC(=O)[C@H](CC(N)=O)NC(=O)[C@@H]3CCCN3C(=O)[C@H](CC(=O)O)NC(=O)[C@@H]3CSSC[C@H](NC(=O)[C@H](C(C)C)NC(=O)[C@H](Cc4ccc(O)cc4)NC(=O)CNC(=O)[C@H](CCC(=O)O)NC(=O)[C@H](CSSC[C@H](NC(=O)[C@H](CC(=O)O)NC(=O)CN)C(=O)N[C@@H](CC(C)C)C(=O)NCC(=O)N[C@@H](Cc4c[nH]c5ccccc45)C(=O)N[C@@H](Cc4ccccc4)C(=O)N[C@@H](CO)C(=O)N[C@@H](CCCNC(=N)N)C(=O)N3)NC2=O)C(=O)N[C@@H](Cc2c[nH]cn2)C(=O)N[C@@H](Cc2c[nH]c3ccccc23)C(=O)N[C@@H](CCCCN)C(=O)N[C@@H](Cc2ccc(O)cc2)C(=O)N2CCC[C@H]2C(=O)N[C@@H](Cc2c[nH]c3ccccc23)C(=O)N1)C(=O)O` [G8R], the negative logarithm of the IC50 (pIC50) was 6.93 on hNaV1.2, 6.38 at hNaV1.3 and 7.02 at hNaV1.7.
For `CC(C)C[C@H](NC(=O)[C@H](CC(=O)O)NC(=O)[C@H](Cc1ccc(O)cc1)NC(=O)[C@H](CCCNC(=N)N)NC(=O)[C@@H]1CSSC[C@@H]2NC(=O)[C@H](CCCCN)NC(=O)[C@H](CC(N)=O)NC(=O)[C@H](CC(N)=O)NC(=O)[C@H](CC(N)=O)NC(=O)[C@@H]3CCCN3C(=O)[C@H](CC(=O)O)NC(=O)[C@@H]3CSSC[C@H](NC(=O)[C@H](C(C)C)NC(=O)[C@H](Cc4ccc(O)cc4)NC(=O)CNC(=O)[C@H](CCC(=O)O)NC(=O)[C@H](CSSC[C@H](NC(=O)[C@H](CC(=O)O)NC(=O)CN)C(=O)N[C@@H](CC(C)C)C(=O)NCC(=O)N[C@@H](Cc4c[nH]c5ccccc45)C(=O)N[C@@H](Cc4ccccc4)C(=O)N[C@@H](CO)C(=O)NCC(=O)N3)NC2=O)C(=O)N[C@@H](Cc2c[nH]cn2)C(=O)N[C@@H](Cc2c[nH]c3ccccc23)C(=O)N[C@@H](CCCCN)C(=O)N[C@@H](Cc2ccc(O)cc2)C(=O)N2CCC[C@H]2C(=O)N[C@@H](Cc2ccccc2)C(=O)N1)C(=O)O` [W28F] the same measures were under 5.52, under 5.52 and 6.26.
With `CC(C)C[C@H](NC(=O)[C@H](CC(=O)O)NC(=O)[C@H](Cc1ccc(O)cc1)NC(=O)[C@H](CCCNC(=N)N)NC(=O)[C@@H]1CSSC[C@@H]2NC(=O)[C@H](CCCCN)NC(=O)[C@H](CC(N)=O)NC(=O)[C@H](CC(N)=O)NC(=O)[C@H](CC(N)=O)NC(=O)[C@@H]3CCCN3C(=O)[C@H](CC(=O)O)NC(=O)[C@@H]3CSSC[C@H](NC(=O)[C@H](C(C)C)NC(=O)[C@H](Cc4ccc(O)cc4)NC(=O)CNC(=O)[C@H](CCC(=O)O)NC(=O)[C@H](CSSC[C@H](NC(=O)[C@H](CC(=O)O)NC(=O)CN)C(=O)N[C@@H](CC(C)C)C(=O)NCC(=O)N[C@@H](Cc4c[nH]c5ccccc45)C(=O)N[C@@H](Cc4ccccc4)C(=O)N[C@@H](CO)C(=O)NCC(=O)N3)NC2=O)C(=O)N[C@@H](Cc2c[nH]cn2)C(=O)N[C@@H](Cc2c[nH]c3ccccc23)C(=O)N[C@@H](C)C(=O)N[C@@H](Cc2ccc(O)cc2)C(=O)N2CCC[C@H]2C(=O)N[C@@H](Cc2c[nH]c3ccccc23)C(=O)N1)C(=O)O` [K25A] (H-GDCLGWFSGCDPNNNKCCEGYVCHWAYPWCRYDL-OH; disulfide 3-18, 10-23, 17-30 (inferred); N-terminus and C-terminus assumed), the negative logarithm of the IC50 (pIC50) at hNaV1.2, on hNaV1.3 and at hNaV1.7 was under 6.00 throughout. Also, at hNaV1.2 (relative to wild type rSsp1a), the “Loss (reduction) in potency vs rSsp1a at hNaV1.2” value is at least 10 fold. Moreover, on hNaV1.7 (relative to wild type rSsp1a), the “Loss (reduction) in potency vs rSsp1a at hNaV1.7” value is given as at least 10 fold.
Regarding `CC(C)C[C@H](NC(=O)[C@H](CC(=O)O)NC(=O)[C@H](Cc1ccc(O)cc1)NC(=O)[C@H](CCCNC(=N)N)NC(=O)[C@@H]1CSSC[C@@H]2NC(=O)[C@H](CCCCN)NC(=O)[C@H](CC(N)=O)NC(=O)[C@H](CC(N)=O)NC(=O)[C@H](CC(N)=O)NC(=O)[C@@H]3CCCN3C(=O)[C@H](CC(=O)O)NC(=O)[C@@H]3CSSC[C@H](NC(=O)[C@H](C(C)C)NC(=O)[C@H](Cc4ccc(O)cc4)NC(=O)CNC(=O)[C@H](CCCCN)NC(=O)[C@H](CSSC[C@H](NC(=O)[C@H](CC(=O)O)NC(=O)CN)C(=O)N[C@@H](CC(C)C)C(=O)NCC(=O)N[C@@H](Cc4c[nH]c5ccccc45)C(=O)N[C@@H](Cc4ccccc4)C(=O)N[C@@H](CCCNC(=N)N)C(=O)NCC(=O)N3)NC2=O)C(=O)N[C@@H](Cc2c[nH]cn2)C(=O)N[C@@H](Cc2c[nH]c3ccccc23)C(=O)N[C@@H](CCCCN)C(=O)N[C@@H](Cc2ccc(O)cc2)C(=O)N2CCC[C@H]2C(=O)N[C@@H](Cc2c[nH]c3ccccc23)C(=O)N1)C(=O)O` [E18K/S7R] (H-GDCLGWFRGCDPNNNKCCKGYVCHWKYPWCRYDL-OH; disulfide 3-18, 10-23, 17-30), the pIC50 on hNaV1.2 is 7.40; on hNaV1.3, 7.23; at hNaV1.7 it was 7.40.
For `CC(C)C[C@H](NC(=O)[C@H](CC(=O)O)NC(=O)[C@H](Cc1ccc(O)cc1)NC(=O)[C@H](CCCNC(=N)N)NC(=O)[C@@H]1CSSC[C@@H]2NC(=O)[C@H](CCCCN)NC(=O)[C@H](CC(N)=O)NC(=O)[C@H](CC(N)=O)NC(=O)[C@H](CC(N)=O)NC(=O)[C@@H]3CCCN3C(=O)[C@H](CC(=O)O)NC(=O)[C@@H]3CSSC[C@H](NC(=O)[C@H](C(C)C)NC(=O)[C@H](C)NC(=O)CNC(=O)[C@H](CCC(=O)O)NC(=O)[C@H](CSSC[C@H](NC(=O)[C@H](CC(=O)O)NC(=O)CN)C(=O)N[C@@H](CC(C)C)C(=O)NCC(=O)N[C@@H](Cc4c[nH]c5ccccc45)C(=O)N[C@@H](Cc4ccccc4)C(=O)N[C@@H](CO)C(=O)NCC(=O)N3)NC2=O)C(=O)N[C@@H](Cc2c[nH]cn2)C(=O)N[C@@H](Cc2c[nH]c3ccccc23)C(=O)N[C@@H](CCCCN)C(=O)N[C@@H](Cc2ccc(O)cc2)C(=O)N2CCC[C@H]2C(=O)N[C@@H](Cc2c[nH]c3ccccc23)C(=O)N1)C(=O)O` [Y20A], the pIC50 is 5.73 at hNaV1.2, under 5.52 at hNaV1.3 and 5.89 at hNaV1.7. Moreover, the “Activity at hNaV1.3 (in words)” value on hNaV1.3 (alanine mutant vs rSsp1a) was “inactive”.
Take `CC(C)C[C@H](NC(=O)[C@H](CC(=O)O)NC(=O)[C@H](Cc1c[nH]c2ccccc12)NC(=O)[C@H](CCCNC(=N)N)NC(=O)[C@@H]1CSSC[C@@H]2NC(=O)[C@H](CCCCN)NC(=O)[C@H](CC(N)=O)NC(=O)[C@H](CC(N)=O)NC(=O)[C@H](CC(N)=O)NC(=O)[C@@H]3CCCN3C(=O)[C@H](CC(=O)O)NC(=O)[C@@H]3CSSC[C@H](NC(=O)[C@H](C(C)C)NC(=O)[C@H](Cc4ccc(O)cc4)NC(=O)CNC(=O)[C@H](CCC(=O)O)NC(=O)[C@H](CSSC[C@H](NC(=O)[C@H](CC(=O)O)NC(=O)CN)C(=O)N[C@@H](CC(C)C)C(=O)NCC(=O)N[C@@H](Cc4c[nH]c5ccccc45)C(=O)N[C@@H](Cc4ccccc4)C(=O)N[C@@H](CO)C(=O)NCC(=O)N3)NC2=O)C(=O)N[C@@H](Cc2c[nH]cn2)C(=O)N[C@@H](Cc2c[nH]c3ccccc23)C(=O)N[C@@H](CCCCN)C(=O)N[C@@H](Cc2ccc(O)cc2)C(=O)N2CCC[C@H]2C(=O)N[C@@H](Cc2c[nH]c3ccccc23)C(=O)N1)C(=O)O` [Y31W]: the values for the pIC50 on hNaV1.2, on hNaV1.3 and at hNaV1.7 were 7.05, 6.80 and 7.10, respectively.

The values above are taken from publication PMC10682951, “Structure-function and rational design of a spider toxin Ssp1a at human voltage-gated sodium channel subtypes” (Frontiers in Pharmacology, 2023).
